Source: patent publication US20240270741A1 (Cogent Biosciences, Inc., priority 2023, published 2024)

Biological target: FGFR2 (Homo sapiens, UniProt P21802)
Assay: FGFR wild type enzyme assay (HTRF KinEASE-TK), FGFR2
Conditions: Enz FGFR2 (nM), FGFR2 wild type enzyme

Chain of FGFR2 (P21802 399-821 limits assumed): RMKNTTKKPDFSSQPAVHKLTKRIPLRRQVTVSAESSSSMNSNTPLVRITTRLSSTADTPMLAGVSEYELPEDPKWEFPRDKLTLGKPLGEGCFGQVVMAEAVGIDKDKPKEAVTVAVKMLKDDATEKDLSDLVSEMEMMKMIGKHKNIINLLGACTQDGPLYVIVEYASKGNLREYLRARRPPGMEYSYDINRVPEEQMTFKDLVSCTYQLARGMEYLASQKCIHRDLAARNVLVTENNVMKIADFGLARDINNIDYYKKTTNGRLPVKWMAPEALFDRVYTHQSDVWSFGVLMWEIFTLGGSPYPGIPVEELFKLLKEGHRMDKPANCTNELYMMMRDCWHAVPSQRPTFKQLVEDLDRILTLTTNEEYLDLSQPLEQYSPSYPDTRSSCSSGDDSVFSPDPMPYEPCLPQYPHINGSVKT

Row | IC50 [nM] | Structure (SMILES)
1 | 4 | Cc1c(-c2cc(Sc3ncc(F)cc3F)c3c(C#N)cnn3c2)cnn1C1CCN(C(=O)CO)CC1 [Example 191, 4-((3,5-difluoropyridin-2-yl)thio)-6-(1-(1-(2-hydroxyacetyl)piperidin-4-yl)-5-methyl-1H-pyrazol-4-yl)pyrazolo[1,5-a]pyridine-3-carbonitrile]
2 | 2 | N#Cc1cnn2cc(-c3cnn([C@@H]4CCCNC4)c3)cc(Sc3ncccc3F)c12 [Example 192, (R)-4-((3-fluoropyridin-2-yl)thio)-6-(1-(piperidin-3-yl)-1H-pyrazol-4-yl)pyrazolo[1,5-a]pyridine-3-carbonitrile]
3 | 2 | Cc1c(-c2cc(Sc3ncccc3F)c3c(C#N)cnn3c2)cnn1C1CCN(C(=O)[C@@H](C)O)CC1 [Example 193, (R)-4-((3-fluoropyridin-2-yl)thio)-6-(1-(1-(2-hydroxypropanoyl)piperidin-4-yl)-5-methyl-1H-pyrazol-4-yl)pyrazolo[1,5-a]pyridine-3-carbonitrile]
4 | 2 | Cc1c(-c2cc(Sc3ncccc3F)c3c(C#N)cnn3c2)cnn1C1CCN(C(=O)[C@H](C)O)CC1 [Example 194, (S)-4-((3-fluoropyridin-2-yl)thio)-6-(1-(1-(2-hydroxypropanoyl)piperidin-4-yl)-5-methyl-1H-pyrazol-4-yl)pyrazolo[1,5-a]pyridine-3-carbonitirle]
5 | 1.4 | Cc1c(-c2cc(Sc3ncccc3F)c3c(C#N)cnn3c2)cnn1C1CCN(CC(=O)N(C)C)CC1 [Example 195, 2-(4-(4-(3-cyano-4-((3-fluoropyridin-2-yl)thio)pyrazolo[1,5-a]pyridin-6-yl)-5-methyl-1H-pyrazol-1-yl)piperidin-1-yl)-N,N-dimethylacetamide]
6 | 1 | Cc1c(-c2cc(Sc3ncccc3F)c3c(C#N)cnn3c2)cnn1C1CCN(C(=O)[C@@H]2C[C@@H](F)CN2C)CC1 [Example 196, 6-(1-(1-((2S,4R)-4-fluoro-1-methylpyrrolidine-2-carbonyl)piperidin-4-yl)-5-methyl-1H-pyrazol-4-yl)-4-((3-fluoropyridin-2-yl)thio)pyrazolo[1,5-a]pyridine-3-carbonitrile]
7 | 3 | Cc1c(-c2cc(Sc3ncccc3F)c3c(C#N)cnn3c2)cnn1[C@H](C)[C@H](O)CO [Example 197, 6-(1-((2R,3S)-3,4-dihydroxybutan-2-yl)-5-methyl-1H-pyrazol-4-yl)-4-((3-fluoropyridin-2-yl)thio)pyrazolo[1,5-a]pyridine-3-carbonitrile]
8 | 21 | Cc1c(-c2cc(Sc3ncccc3F)c3c(C#N)cnn3c2)cnn1[C@@H](C)[C@H](O)CO [Example 198, 6-(1-((2S,3S)-3,4-dihydroxybutan-2-yl)-5-methyl-1H-pyrazol-4-yl)-4-((3-fluoropyridin-2-yl)thio)pyrazolo[1,5-a]pyridine-3-carbonitrile]
9 | 1 | Cc1c(-c2cc(Sc3ccccc3C#N)c3c(C#N)cnn3c2)cnn1C1CC2CCC(C1)N2C (centres unmarked) [Example 199, 4-((2-cyanophenyl)thio)-6-(5-methyl-1-(8-methyl-8-azabicyclo[3.2.1]octan-3-yl)-1H-pyrazol-4 yl)pyrazolo[1,5-a]pyridine-3-carbonitrile]
10 | 1 | Cc1c(-c2cc(Sc3ccccc3C#N)c3c(C#N)cnn3c2)cnn1CC1CCNCC1 [Example 200, 4-((2-cyanophenyl)thio)-6-(5-methyl-1-(piperidin-4-ylmethyl)-1H-pyrazol-4-yl)pyrazolo[1,5-a]pyridine-3-carbonitrile]
11 | 2 | Cc1c(-c2cc(Sc3ccccc3C#N)c3c(C#N)cnn3c2)cnn1C[C@H]1CCCNC1 [Example 201, (S)-4-((2-cyanophenyl)thio)-6-(5-methyl-1-(piperidin-3-ylmethyl)-1H-pyrazol-4-yl)pyrazolo[1,5-a]pyridine-3-carbonitrile]
12 | 2 | CC(=O)N1CCC[C@H](Cn2ncc(-c3cc(Sc4ccccc4C#N)c4c(C#N)cnn4c3)c2C)C1 [Example 202, (S)-6-(1-((1-acetylpiperidin-3-yl)methyl)-5-methyl-1H-pyrazol-4-yl)-4-((2-cyanophenyl)thio)pyrazolo [1,5-a]pyridine-3-carbonitrile]
13 | 2 | Cc1c(-c2cc(Sc3ncccc3F)c3c(C#N)cnn3c2)cnn1C1CC2CCC(C1)N2 (centres unmarked) [Example 203, 4-[(3-fluoro-2-pyridiyl)sulfonyl]-6-[1-[1-(1-prop-2-enoylazetidine-3-carbonyl)-4-piperidyl]pyrazol-4-yl]pyrazolo[1,5-a]pyridine-3-carbonitrile]
14 | 2 | CC(=O)N1C2CCC1CC(n1ncc(-c3cc(Sc4ncccc4F)c4c(C#N)cnn4c3)c1C)C2 (centres unmarked) [Example 204, 6-(1-(8-acetyl-8-azabicyclo[3.2.1]octan-3-yl)-5-methyl-1H-pyrazol-4-yl)-4-((3-fluoropyridin-2-yl)thio)pyrazolo[1,5-a]pyridine-3-carbonitrile]
15 | 3 | CC(=O)N1CCC(Cn2ncc(-c3cc(Sc4ncccc4F)c4c(C#N)cnn4c3)c2C)CC1 [Example 205, 6-(1-((1-acetylpiperidin-4-yl)methyl)-5-methyl-1H-pyrazol-4-yl)-4-((3-fluoropyridin-2-yl)thio)pyrazolo[1,5-a]pyridine-3-carbonitrile]
16 | 3 | Cc1c(-c2cc(Sc3ncccc3F)c3c(C#N)cnn3c2)cnn1C[C@H]1CCCNC1 [Example 206, (S)-4-((3-fluoropyridin-2-yl)thio)-6-(5-methyl-1-(piperidin-3-ylmethyl)-1H-pyrazol-4-yl)pyrazolo[1,5-a]pyridine-3-carbonitrile]
17 | 5 | CC(=O)N1CCC[C@H](Cn2ncc(-c3cc(Sc4ncccc4F)c4c(C#N)cnn4c3)c2C)C1 [Example 207, (S)-6-(1-((1-acetylpiperidin-3-yl)methyl)-5-methyl-1H-pyrazol-4-yl)-4-((3-fluoropyridin-2-yl)thio)pyrazolo[1,5-a]pyridine-3-carbonitrile]
18 | 1 | CN[C@H]1C[C@@H](n2ncc(-c3cc(Sc4ncccc4F)c4c(C#N)cnn4c3)c2C)C1 [Example 208, 4-((3-fluoropyridin-2-yl)thio)-6-(5-methyl-1-((1s,3s)-3-(methylamino)cyclobutyl)-1H-pyrazol-4-yl)pyrazolo[1,5-a]pyridine-3-carbonitrile]
19 | 1 | Cc1c(-c2cc(Sc3ncccc3F)c3c(C#N)cnn3c2)cnn1C1CC2(CNC2)C1 [Example 209, 4-((3-fluoropyridin-2-yl)thio)-6-(5-methyl-1-(2-azaspiro[3.3]heptan-6-yl)-1H-pyrazol-4-yl)pyrazolo[1,5-a]pyridine-3-carbonitrile]
20 | 2 | CC(=O)N1CC2(CC(n3ncc(-c4cc(Sc5ncccc5F)c5c(C#N)cnn5c4)c3C)C2)C1 [Example 210, 6-(1-(2-acetyl-2-azaspiro[3.3]heptan-6-yl)-5-methyl-1H-pyrazol-4-yl)-4-((3-fluoropyridin-2-yl)thio)pyrazolo[1,5-a]pyridine-3-carbonitrile]
21 | 1 | CNC1CC2(C1)CC(n1ncc(-c3cc(Sc4ncccc4F)c4c(C#N)cnn4c3)c1C)C2 (centres unmarked) [Example 211, 4-((3-fluoropyridin-2-yl)thio)-6-(5-methyl-1-(6-(methylamino)spiro[3.3]hep-tan-2-yl)-1H-pyrazol-4-yl)pyrazolo[1,5-a]pyridine-3-carbonitrile]
22 | 3 | Cc1c(-c2cc(Sc3ncccc3F)c3c(C#N)cnn3c2)cnn1C[C@H]1CC[C@@H](O)CC1 [Example 212, 4-((3-fluoropyridin-2-yl)thio)-6-(1-(((1s,4s)-4-hydroxycyclohexyl)methyl)-5-methyl-1H-pyrazol-4-yl)pyrazolo[1,5-a]pyridine-3-carbonitrile]
23 | 1.6 | Cc1c(-c2cc(Sc3ncccc3F)c3c(C#N)cnn3c2)cnn1C1CCN(C(=O)C(C)(C)N(C)C)CC1 [Example 213, 6-(1-(1-(2-(dimethylamino)-2-methylpropanoyl)piperidin-4-yl)-5-methyl-1H-pyrazol-4-yl)-4-((3-fluoropyridin-2-yl)thio)pyrazolo[1,5-a]pyridine-3-carbonitrile]
24 | 1.6 | Cc1c(-c2cc(Sc3ncccc3F)c3c(C#N)cnn3c2)cnn1C1CCN(C(=O)[C@@H](C)N(C)C)CC1 [Example 214, 6-(1-(1-(dimethyl-D-alanyl)piperidin-4-yl)-5-methyl-1H-pyrazol-4-yl)-4-((3-fluoropyridin-2-yl)thio)pyrazolo[1,5-a]pyridine-3-carbonitrile]
25 | 1.6 | Cc1c(-c2cc(Sc3ncccc3F)c3c(C#N)cnn3c2)cnn1C1CCN(C(=O)[C@H](C)N(C)C)CC1 [Example 215, 6-(1-(1-(dimethyl-L-alanyl)piperidin-4-yl)-5-methyl-1H-pyrazol-4-yl)-4-((3-fluoropyridin-2-yl)thio)pyrazolo[1,5-a]pyridine-3-carbonitrile]
26 | 2 | Cc1c(-c2cc(Sc3ncccc3F)c3c(C#N)cnn3c2)cnn1C1CCN(Cc2ncccn2)CC1 [Example 216, 4-((3-fluoropyridin-2-yl)thio)-6-(5-methyl-1-(1-(pyrimidin-2-ylmethyl)piperidin-4-yl)-1H-pyrazol-4-yl)pyrazolo[1,5-a]pyridine-3-carbonitrile]
27 | 6 | Cc1c(-c2cc(Sc3ncccc3F)c3c(C#N)cnn3c2)cnn1CC1CCN(CC(=O)N(C)C)CC1 [Example 217, 2-(4-((4-(3-cyano-4-((3-fluoropyridin-2-yl)thio)pyrazolo[1,5-a]pyridin-6-yl)-5-methyl-1H-pyrazol-1-yl)methyl)piperidin-1-yl)-N,N-dimethylacetamide]
28 | 3 | Cc1c(-c2cc(Sc3ncccc3F)c3c(C#N)cnn3c2)cnn1[C@H](C)C1CCNCC1 [Example 218, (R)-4-((3-fluoropyridin-2-yl)thio)-6-(5-methyl-1-(1-(piperidin-4-yl)ethyl)-1H-pyrazol-4-yl)pyrazolo[1,5-a]pyridine-3-carbonitrile]
29 | 0.5 | Cc1c(-c2cc(Sc3ncccc3F)c3c(C#N)cnn3c2)cnn1[C@H]1CC[C@]2(CCNC2)CC1 [Example 219, 4-((3-fluoropyridin-2-yl)thio)-6-(5-methyl-1-((5s,8s)-2-azaspiro[3.4]decan-8-yl)-1H-pyrazol-4-yl)pyrazolo[1,5-a]pyridine-3-carbonitrile]
